From patent US9493455B2, “Azaindole derivatives as inhibitors of protein kinases” (ORIBASE PHARMA, priority 2012, dated 2016)

Legend:
[1] = molecular target: T1, BRAF (Homo sapiens, UniProt P15056); assay: In vitro kinase assay (Z′-LYTE); type: biochemical; conditions: compound 100 nM; ATP 100 μM; read-out: % of inhibition of the kinase compared to the control
T1 construct: purchased Invitrogen
Experimental: (§1) The inhibitory activity of the compounds on several kinases including BRAF, EGFR (ErbB1), EGFR (ErbB1) T790M L858R, FGFR2, KDR (VEGFR2), PDGFRA (PDGFR alpha), SRC and other was evaluated by Invitrogen using the Z′-LYTE® technology. Briefly, the Z′-LYTE® biochemical assay employs a fluorescence-based, coupled-enzyme format and is based on the differential sensitivity of phosphorylated and non-phosphorylated peptides to proteolytic cleavage. The peptide substrate is labeled with two fluorophores—one at each end—that make up a FRET pair. A ratiometric method, which calculates the ratio (the Emission Ratio) of donor emission to acceptor emission after excitation of the donor fluorophore at 400 nm, is used to quantitate reaction progress.
(§2) The compounds are screened in 1% DMSO (final) in the well. For 10 point titrations, 3-fold serial dilutions are conducted from the starting concentration. All Peptide/Kinase Mixtures are diluted to a 2× working concentration in the appropriate Kinase Buffer. All ATP Solutions are diluted to a 4× working concentration in Kinase Buffer (50 mM HEPES pH 7.5, 0.01% BRIJ-35, 10 mM MgCl2, 1 mM EGTA). ATP Km apparent is previously determined using a Z′-LYTE® assay.
(§3) Each compound was incubated at a concentration of 100 nM (excepted to test the activity against ABL and ABL T315I for which the compounds were incubated at a concentration of 10 μM) and the tables B1 to B12 summarize the results obtained showing the inhibitory power of a compound. The inhibitory activity of OR0512 was also investigated using the same assays and the kinases for which activity was inhibited at more than 50% at the concentration of 100 nM of OR0512 are listed in the table B13.

[2] = molecular target: T2, EGFR (ErbB1) (Homo sapiens, UniProt P00533); assay: In vitro kinase assay (Z′-LYTE); type: biochemical; conditions: read-out: % of inhibition of the kinase compared to the control
T2 construct: purchased Invitrogen
Experimental: as §1, §2, §3

[3] = molecular target: T3, FGFR2 (Homo sapiens, UniProt P21802); assay: In vitro kinase assay (Z′-LYTE); type: biochemical; conditions: read-out: % of inhibition of the kinase compared to the control
T3 construct: purchased Invitrogen
Experimental: as §1, §2, §3

[4] = molecular target: T4, KDR (VEGFR2) (Homo sapiens, UniProt P35968); assay: In vitro kinase assay (Z′-LYTE); type: biochemical; conditions: read-out: % of inhibition of the kinase compared to the control
T4 construct: purchased Invitrogen
Experimental: as §1, §2, §3

[5] = molecular target: T5, PDGFRA (PDGFR alpha) (Homo sapiens, UniProt P16234); assay: In vitro kinase assay (Z′-LYTE); type: biochemical; conditions: read-out: % of inhibition of the kinase compared to the control
T5 construct: purchased Invitrogen
Experimental: as §1, §2, §3

[6] = system: HUVEC; assay: In vitro cell proliferation assay (MTT); type: cell-based; conditions: Homo sapiens, 72 h
Experimental: (§4) Cancer cell lines (5×10^3 cells per well) or HUVEC (1×10^4 cells per well) or HRMEC (1×10^4 cells per well) were distributed in 96-well plates and incubating in duplicate with escalating concentrations (10 nM to 3 μM) of compounds for 72 hr. Cell proliferation was measured using MTT (3 [4,5-dimethylthiazol-2-yl]-2,5-diphenyltetrazolium bromide).

[7] = system: HepG2; assay: In vitro cell proliferation assay (MTT); type: cell-based; conditions: Homo sapiens, HepG2, 72 h
Experimental: as §4

[8] = molecular target: T6, EGFR (ErbB1) T790M L858R (Homo sapiens, UniProt P00533, L858R/T790M); assay: In vitro kinase assay (Z′-LYTE); type: biochemical; conditions: read-out: % of inhibition of the kinase compared to the control
T6 construct: purchased Invitrogen
Experimental: as §1, §2, §3

[9] = molecular target: T7, SRC (Homo sapiens, UniProt P12931); assay: In vitro kinase assay (Z′-LYTE); type: biochemical; conditions: read-out: % of inhibition of the kinase compared to the control
T7 construct: purchased Invitrogen
Experimental: as §1, §2, §3

[10] = system: A549; assay: In vitro cell proliferation assay (MTT); type: cell-based; conditions: Homo sapiens, A549, 72 h
Experimental: as §4

[11] = system: BxPC-3; assay: In vitro cell proliferation assay (MTT); type: cell-based; conditions: Homo sapiens, BXPC-3, 72 h
Experimental: as §4

[12] = system: H1975; assay: In vitro cell proliferation assay (MTT); type: cell-based; conditions: Homo sapiens, NCI-H1975, 72 h
Experimental: as §4

[13] = system: HT29; assay: In vitro cell proliferation assay (MTT); type: cell-based; conditions: Homo sapiens, HT-29, 72 h
Experimental: as §4

[14] = molecular target: T8, ABL (Homo sapiens, UniProt P00519); assay: In vitro kinase assay (Z′-LYTE); type: biochemical; conditions: read-out: % of inhibition of the kinase compared to the control
T8 construct: purchased Invitrogen
Experimental: as §1, §2, §3

[15] = molecular target: T9, ABL T315I (Homo sapiens, UniProt P00519, T315I); assay: In vitro kinase assay (Z′-LYTE); type: biochemical; conditions: read-out: % of inhibition of the kinase compared to the control
T9 construct: purchased Invitrogen
Experimental: as §1, §2, §3

[16] = molecular target: T10, FGFR1 (Homo sapiens, UniProt P11362); assay: In vitro kinase assay (Z′-LYTE); type: biochemical; conditions: read-out: % of inhibition of the kinase compared to the control
T10 construct: purchased Invitrogen
Experimental: as §1, §2, §3

[17] = molecular target: T11, PDGFRB (Homo sapiens, UniProt P09619); assay: In vitro kinase assay (Z′-LYTE); type: biochemical; conditions: read-out: % of inhibition of the kinase compared to the control
T11 construct: purchased Invitrogen
Experimental: as §1, §2, §3

[18] = molecular target: T12, VEGFR1 (Homo sapiens, UniProt P17948); assay: In vitro kinase assay (Z′-LYTE); type: biochemical; conditions: read-out: % of inhibition of the kinase compared to the control
T12 construct: purchased Invitrogen
Experimental: as §1, §2, §3

T12 sequence (P17948 27-1338): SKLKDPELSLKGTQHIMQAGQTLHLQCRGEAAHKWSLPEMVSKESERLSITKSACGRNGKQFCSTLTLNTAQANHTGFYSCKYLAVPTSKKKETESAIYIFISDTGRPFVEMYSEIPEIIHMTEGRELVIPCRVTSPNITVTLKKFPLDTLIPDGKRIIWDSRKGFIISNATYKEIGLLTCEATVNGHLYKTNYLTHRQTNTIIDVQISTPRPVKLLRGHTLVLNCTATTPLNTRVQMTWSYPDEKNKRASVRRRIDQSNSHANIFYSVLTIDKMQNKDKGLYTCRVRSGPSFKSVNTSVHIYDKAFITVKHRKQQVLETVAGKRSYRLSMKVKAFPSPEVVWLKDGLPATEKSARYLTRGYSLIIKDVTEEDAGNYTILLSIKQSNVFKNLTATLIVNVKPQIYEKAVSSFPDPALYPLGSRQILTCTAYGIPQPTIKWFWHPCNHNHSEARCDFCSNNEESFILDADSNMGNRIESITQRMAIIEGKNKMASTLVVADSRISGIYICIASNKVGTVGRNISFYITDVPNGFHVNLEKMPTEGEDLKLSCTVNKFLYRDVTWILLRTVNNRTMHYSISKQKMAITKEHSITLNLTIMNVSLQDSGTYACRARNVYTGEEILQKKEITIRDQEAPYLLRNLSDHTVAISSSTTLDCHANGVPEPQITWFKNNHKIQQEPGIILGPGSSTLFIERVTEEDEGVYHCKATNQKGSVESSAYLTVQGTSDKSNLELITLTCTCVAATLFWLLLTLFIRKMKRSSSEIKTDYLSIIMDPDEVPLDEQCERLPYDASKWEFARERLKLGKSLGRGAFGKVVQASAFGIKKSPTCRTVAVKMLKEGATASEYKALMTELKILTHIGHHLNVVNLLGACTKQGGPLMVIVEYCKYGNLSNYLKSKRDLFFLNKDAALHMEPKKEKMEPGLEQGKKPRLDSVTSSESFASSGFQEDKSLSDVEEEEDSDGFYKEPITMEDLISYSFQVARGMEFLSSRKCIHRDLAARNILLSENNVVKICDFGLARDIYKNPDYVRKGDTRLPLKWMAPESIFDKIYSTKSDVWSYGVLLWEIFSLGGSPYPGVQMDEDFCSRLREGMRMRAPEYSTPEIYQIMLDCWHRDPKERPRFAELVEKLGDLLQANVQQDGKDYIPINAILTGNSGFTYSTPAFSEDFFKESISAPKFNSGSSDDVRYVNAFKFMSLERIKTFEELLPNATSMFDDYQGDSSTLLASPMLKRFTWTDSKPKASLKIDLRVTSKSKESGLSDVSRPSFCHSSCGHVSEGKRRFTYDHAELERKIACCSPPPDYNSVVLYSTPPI
T7 sequence (P12931 whole entry): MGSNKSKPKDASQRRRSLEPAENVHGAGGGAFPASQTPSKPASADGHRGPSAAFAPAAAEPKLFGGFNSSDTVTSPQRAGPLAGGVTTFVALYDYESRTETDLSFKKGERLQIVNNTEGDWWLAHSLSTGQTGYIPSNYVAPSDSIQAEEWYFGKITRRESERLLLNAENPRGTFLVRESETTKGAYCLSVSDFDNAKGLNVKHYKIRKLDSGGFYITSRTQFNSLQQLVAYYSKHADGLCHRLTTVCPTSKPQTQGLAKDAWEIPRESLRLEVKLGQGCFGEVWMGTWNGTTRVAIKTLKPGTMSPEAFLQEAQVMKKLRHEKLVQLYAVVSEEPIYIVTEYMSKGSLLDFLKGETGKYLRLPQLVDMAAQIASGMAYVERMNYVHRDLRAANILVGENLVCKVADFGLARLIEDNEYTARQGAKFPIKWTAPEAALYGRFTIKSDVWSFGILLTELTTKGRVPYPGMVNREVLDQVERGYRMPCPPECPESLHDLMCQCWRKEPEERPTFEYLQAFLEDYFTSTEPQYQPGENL
T10 sequence (P11362 22-822): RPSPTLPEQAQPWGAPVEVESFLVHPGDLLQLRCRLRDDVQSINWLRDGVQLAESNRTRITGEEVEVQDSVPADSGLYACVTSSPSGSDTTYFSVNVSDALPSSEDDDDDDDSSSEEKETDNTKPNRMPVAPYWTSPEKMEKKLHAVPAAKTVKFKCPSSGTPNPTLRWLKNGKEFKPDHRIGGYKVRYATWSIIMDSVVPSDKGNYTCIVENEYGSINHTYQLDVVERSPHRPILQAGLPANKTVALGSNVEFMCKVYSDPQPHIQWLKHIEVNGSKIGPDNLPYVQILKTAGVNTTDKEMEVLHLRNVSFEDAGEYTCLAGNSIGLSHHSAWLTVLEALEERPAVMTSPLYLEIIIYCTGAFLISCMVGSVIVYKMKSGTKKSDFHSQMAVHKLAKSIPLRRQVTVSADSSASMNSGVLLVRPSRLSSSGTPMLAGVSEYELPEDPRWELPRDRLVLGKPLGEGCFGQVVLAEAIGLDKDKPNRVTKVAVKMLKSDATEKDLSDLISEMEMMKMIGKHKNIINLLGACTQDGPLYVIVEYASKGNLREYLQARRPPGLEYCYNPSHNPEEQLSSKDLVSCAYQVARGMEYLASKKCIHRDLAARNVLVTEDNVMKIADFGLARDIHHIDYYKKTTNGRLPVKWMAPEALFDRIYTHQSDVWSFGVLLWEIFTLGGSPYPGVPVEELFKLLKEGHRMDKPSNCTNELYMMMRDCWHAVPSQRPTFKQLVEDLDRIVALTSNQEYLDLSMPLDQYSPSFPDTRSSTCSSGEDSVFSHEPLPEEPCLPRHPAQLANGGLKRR
T5 sequence (P16234 24-1089): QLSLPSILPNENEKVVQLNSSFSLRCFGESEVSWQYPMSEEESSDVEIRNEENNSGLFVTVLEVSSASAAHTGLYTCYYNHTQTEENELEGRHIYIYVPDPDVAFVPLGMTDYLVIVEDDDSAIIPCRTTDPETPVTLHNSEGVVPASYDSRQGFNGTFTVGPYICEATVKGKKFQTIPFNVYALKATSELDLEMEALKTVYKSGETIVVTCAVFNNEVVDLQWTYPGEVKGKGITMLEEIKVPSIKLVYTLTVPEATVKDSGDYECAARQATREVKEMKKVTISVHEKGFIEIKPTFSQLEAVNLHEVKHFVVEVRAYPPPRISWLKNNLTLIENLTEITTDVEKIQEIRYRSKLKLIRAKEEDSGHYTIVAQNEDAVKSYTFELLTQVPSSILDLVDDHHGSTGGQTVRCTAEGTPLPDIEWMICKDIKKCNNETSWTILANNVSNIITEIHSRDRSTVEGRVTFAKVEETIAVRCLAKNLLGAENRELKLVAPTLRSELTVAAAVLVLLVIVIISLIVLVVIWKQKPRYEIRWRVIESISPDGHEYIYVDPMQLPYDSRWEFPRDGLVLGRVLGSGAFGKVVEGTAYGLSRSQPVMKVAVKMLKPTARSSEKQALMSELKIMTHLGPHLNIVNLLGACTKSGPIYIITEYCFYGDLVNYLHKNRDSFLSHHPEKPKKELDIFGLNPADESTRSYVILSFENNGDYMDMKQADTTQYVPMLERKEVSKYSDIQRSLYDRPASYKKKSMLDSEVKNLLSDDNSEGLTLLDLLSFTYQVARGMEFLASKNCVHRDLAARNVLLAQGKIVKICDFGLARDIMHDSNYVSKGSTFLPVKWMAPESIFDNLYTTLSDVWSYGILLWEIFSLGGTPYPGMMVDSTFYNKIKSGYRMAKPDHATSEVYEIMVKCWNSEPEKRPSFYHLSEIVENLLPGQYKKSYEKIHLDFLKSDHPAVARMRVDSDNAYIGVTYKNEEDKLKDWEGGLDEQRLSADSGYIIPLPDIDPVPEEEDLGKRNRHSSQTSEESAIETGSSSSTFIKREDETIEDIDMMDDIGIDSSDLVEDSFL
T6 sequence (P00533 25-1210 T790M/L858R): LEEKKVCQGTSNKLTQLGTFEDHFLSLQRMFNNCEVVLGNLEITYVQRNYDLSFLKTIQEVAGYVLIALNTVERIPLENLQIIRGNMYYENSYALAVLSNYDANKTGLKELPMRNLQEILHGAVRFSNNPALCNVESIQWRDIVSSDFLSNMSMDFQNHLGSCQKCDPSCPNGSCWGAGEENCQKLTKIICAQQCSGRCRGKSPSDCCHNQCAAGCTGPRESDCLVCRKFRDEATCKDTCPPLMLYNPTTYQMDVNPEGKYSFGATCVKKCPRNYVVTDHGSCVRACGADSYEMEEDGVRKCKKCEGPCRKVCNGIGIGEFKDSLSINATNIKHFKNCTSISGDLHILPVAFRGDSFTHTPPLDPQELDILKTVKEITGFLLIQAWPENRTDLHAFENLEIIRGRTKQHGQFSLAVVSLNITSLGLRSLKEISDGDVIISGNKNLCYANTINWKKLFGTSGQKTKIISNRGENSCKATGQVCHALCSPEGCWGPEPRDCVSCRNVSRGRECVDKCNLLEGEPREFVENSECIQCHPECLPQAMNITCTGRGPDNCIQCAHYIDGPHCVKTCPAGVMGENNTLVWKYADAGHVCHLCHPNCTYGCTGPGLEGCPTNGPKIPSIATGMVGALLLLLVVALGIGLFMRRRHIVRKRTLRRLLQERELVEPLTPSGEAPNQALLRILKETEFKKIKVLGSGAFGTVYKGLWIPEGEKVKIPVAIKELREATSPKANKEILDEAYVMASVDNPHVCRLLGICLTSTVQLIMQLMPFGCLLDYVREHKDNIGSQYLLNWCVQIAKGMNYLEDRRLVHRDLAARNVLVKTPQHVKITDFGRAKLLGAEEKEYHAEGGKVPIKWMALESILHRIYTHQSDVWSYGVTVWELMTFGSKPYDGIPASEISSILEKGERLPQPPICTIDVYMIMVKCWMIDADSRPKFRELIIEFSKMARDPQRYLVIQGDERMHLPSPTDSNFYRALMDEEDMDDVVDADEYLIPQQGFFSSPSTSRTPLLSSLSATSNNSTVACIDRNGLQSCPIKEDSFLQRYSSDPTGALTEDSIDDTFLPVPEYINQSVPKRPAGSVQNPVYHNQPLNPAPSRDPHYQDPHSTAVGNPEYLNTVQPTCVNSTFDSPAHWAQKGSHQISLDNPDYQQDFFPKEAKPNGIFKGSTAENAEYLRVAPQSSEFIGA

Row | inhibition at 0.1 µM [1] [%] | inhibition at 0.1 µM [2] [%] | inhibition at 0.1 µM [3] [%] | inhibition at 0.1 µM [4] [%] | inhibition at 0.1 µM [5] [%] | EC50 [7] [nM] | inhibition at 0.1 µM [8] [%] | inhibition at 0.1 µM [9] [%] | EC50 [10] [nM] | EC50 [11] [nM] | EC50 [12] [nM] | EC50 [13] [nM] | inhibition at 10 µM [14] [%] | inhibition at 10 µM [15] [%] | inhibition at 0.1 µM [16] [%] | inhibition at 0.1 µM [17] [%] | inhibition at 0.1 µM [18] [%] | Compound | EC50 [6] [nM]
1 | < 50 | < 50 | < 50 | < 50 | < 50 | ≥ 1000 |  |  |  |  |  |  |  |  |  |  |  | COC(=O)c1cc2cc(NCc3cccc(C(=O)NCc4cccc(C(F)(F)F)c4)c3)cnc2[nH]1 [OR1004] | ≥ 1000
2 | < 50 | < 50 | ≥ 50 | ≥ 50 |  | ≥ 1000 |  |  |  |  |  |  |  |  |  |  |  | COC(=O)c1cc2cc(NCc3cccc(C(=O)Nc4ccc(CN5CCN(C)CC5)c(C(F)(F)F)c4)c3)cnc2[nH]1 [OR0635] | 100 to 1000
3 | < 50 | ≥ 50 | < 50 | < 50 | < 50 |  | < 50 | ≥ 50 |  |  |  |  |  |  |  |  |  | COC(=O)c1cc2cc(NCc3cc(NC(=O)c4cc(N5CCN(C)CC5)cc(C(F)(F)F)c4)ccc3C)cnc2[nH]1 [OR0698] | 
4 | < 50 | ≥ 50 | < 50 | < 50 | < 50 | 100 to 1000 | < 50 | ≥ 50 | 100 to 1000 | 100 to 1000 | ≥ 1000 | 100 to 1000 |  |  |  |  |  | CCCOC(=O)c1cc2cc(NCc3cc(NC(=O)c4ccc(CN5CCN(C)CC5)c(C(F)(F)F)c4)ccc3C)cnc2[nH]1 [OR0697, 5-{2-methyl-5-[4-(4-methyl-piperazin-1-ylmethyl)-3-trifluoromethyl-benzoylamino]-benzylamino}-1H-pyrrolo[2,3-b]pyridine-2-carboxylic acid propyl ester] | 100 to 1000
5 | < 50 | < 50 | < 50 | < 50 | ≥ 50 |  | < 50 | ≥ 50 |  | 100 to 1000 |  |  | ≥ 50 | < 50 | < 50 | < 50 | < 50 | COC(=O)c1cc2cc(NCc3cc(NC(=O)Nc4cccc(C(F)(F)F)c4)ccc3C)cnc2[nH]1 [OR0603] | 
6 | < 50 | < 50 | < 50 | < 50 | < 50 |  | < 50 | < 50 |  | ≥ 1000 |  |  | ≥ 50 | < 50 | < 50 | < 50 | < 50 | COC(=O)c1cc2cc(NC(=O)c3cc(NC(=S)c4cc(-n5cnc(C)c5)cc(C(F)(F)F)c4)ccc3C)cnc2[nH]1 [OR0643] | 
7 | < 50 | < 50 | < 50 | < 50 | < 50 | ≥ 1000 |  |  |  |  |  |  |  |  |  |  |  | COC(=O)c1cc2cc(NCc3cccc(C(=O)Nc4cccnc4)c3)cnc2[nH]1 [OR0916] | ≥ 1000
8 | ≥ 50 | < 50 | < 50 | < 50 | ≥ 50 | ≥ 1000 |  |  |  |  |  |  |  |  |  |  |  | COC(=O)c1cc2cc(NCc3cc(NC(=O)c4cc[nH]c4)ccc3C)cnc2[nH]1 [OR0975] | ≥ 1000
9 | < 50 | < 50 | < 50 | < 50 | ≥ 50 |  | < 50 | ≥ 50 |  | 100 to 1000 |  |  | ≥ 50 | < 50 | < 50 | < 50 | < 50 | COC(=O)c1cc2cc(NCc3cc(NC(=O)c4cccc5c4OCC5)ccc3C)cnc2[nH]1 [OR0618] | 
10 | < 50 | < 50 | < 50 | < 50 | < 50 | ≥ 1000 |  |  |  |  |  |  |  |  |  |  |  | COC(=O)c1cc2cc(NC(=O)c3cccc(CNC(=O)c4ccc(CN5CCN(C)CC5)c(C(F)(F)F)c4)c3)cnc2[nH]1 [OR0983] | ≥ 1000
11 | < 50 | < 50 | < 50 | < 50 | < 50 |  | < 50 | < 50 |  |  |  |  | ≥ 50 | ≥ 50 | < 50 | < 50 | < 50 | COC(=O)c1cc2cc(NCc3cc(NC(=O)c4ccc(CN5CCN(C)CC5)c(C(F)(F)F)c4)ccc3Cl)cnc2[nH]1 [OR0621] | 
12 | ≥ 50 | ≥ 50 | < 50 | < 50 |  | ≥ 1000 |  |  |  |  |  |  |  |  |  |  |  | COC(=O)c1cc2cc(NCc3cc(NC(=O)Nc4cccnc4)ccc3C)cnc2[nH]1 [OR0896] | 100 to 1000
13 | < 50 | ≥ 50 | < 50 | < 50 | ≥ 50 |  | < 50 | ≥ 50 |  | ≥ 1000 |  |  | ≥ 50 | < 50 | < 50 | < 50 | < 50 | COC(=O)c1cc2cc(NCc3cc(NC(=O)c4ccc(-c5csc(C)n5)cc4)ccc3C)cnc2[nH]1 [OR0620] | 
14 | < 50 | < 50 | < 50 | < 50 | < 50 |  | < 50 | < 50 |  | ≥ 1000 |  |  | ≥ 50 | < 50 | < 50 | < 50 | < 50 | COC(=O)c1cc2cc(NCc3cc(NS(=O)(=O)c4ccc(C)cc4)ccc3C)cnc2[nH]1 [OR0595] | 
15 |  |  |  |  |  |  |  |  |  | ≥ 1000 | ≥ 1000 |  |  |  |  |  |  | C#Cc1cccc(Nc2ncnc3cc(OCCOC)c(OCCOC)cc23)c1 [Erlotinib, reference compound] | ≥ 1000
16 | ≥ 50 | ≥ 50 | < 50 | ≥ 50 |  | ≥ 1000 |  |  |  |  |  |  |  |  |  |  |  | COC(=O)c1cc2cc(NCc3cc(NC(=O)c4ccc(CN5CCC(N(C)C)C5)c(F)c4)ccc3C)cnc2[nH]1 (stereo not shown) [OR0974] | ≥ 1000
17 | ≥ 50 | ≥ 50 | ≥ 50 | ≥ 50 |  | ≥ 1000 |  |  |  |  |  |  |  |  |  |  |  | COC(=O)c1cc2cc(NCc3cc(NC(=O)c4ccc(CN5CCN(C)CC5)c(F)c4)ccc3C)cnc2[nH]1 [OR0864] | 
